Residues, ends and D or L forms follow the SMILES beside them. *: point of attachment. Biotin = O=C1N[C@H]2[C@H](CS[C@H]2CCCCC(=O)*)N1; Ahx = NCCCCCC(=O)O
T1: R59Q-variant RGS12 PDZ domain GST-fusion protein (Homo sapiens, UniProt O14924, R59Q)
T1 construct: human RGS12 PDZ domain (aa 18–101 of UniProt O14924); purchased GenScript; host or cells: E. coli
T1 sequence (O14924 18-101 R59Q): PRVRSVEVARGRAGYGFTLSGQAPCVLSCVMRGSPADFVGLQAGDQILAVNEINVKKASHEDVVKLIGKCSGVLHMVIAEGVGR

T2: wildtype RGS12 PDZ domain GST-fusion protein (Homo sapiens, UniProt O14924)
T2 construct: human RGS12 PDZ domain (aa 18–101 of UniProt O14924); purchased GenScript; host or cells: E. coli
T2 sequence (O14924 18-101): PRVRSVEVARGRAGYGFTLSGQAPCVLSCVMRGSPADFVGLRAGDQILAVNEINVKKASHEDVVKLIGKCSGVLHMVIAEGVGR

T3: SAPAP3 C-terminal peptide, biotin-Ahx-IYIPEAQTRL-carboxylic acid (human, SMILES …)
T3 construct: C-terminus of SAPAP3; the last ten residues of the human 20-mer aa 960-979; also called SAPAP3 C-tail peptide AQTRL-COOH; source: synthetic peptide (GenScript)
T3 peptide: {Biotin-Ahx}-IYIPEAQTRL-OH

T4: MEK2 C-terminal peptide, biotin-Ahx-RTLRLKQPSTPTRTAV-carboxylic acid (rat, SMILES …)
T4 construct: C-terminus of MEK2; also called MEK2 C-tail; TRTAV-COOH of MEK2; source: synthetic peptide (GenScript)
T4 peptide: {Biotin-Ahx}-RTLRLKQPSTPTRTAV-OH

T5: CXCR2 C-terminal peptide, biotin-Ahx-VGSSSGHTSTTL-carboxylic acid (SMILES …)
T5 construct: C-terminus of CXCR2; also called CXCR2 C-tail peptide TSTTL-COOH; CXCR2 TSTTL-COOH biosensor; source: synthetic peptide (GenScript)
T5 peptide: {Biotin-Ahx}-VGSSSGHTSTTL-OH

B1: R59Q-variant human RGS12 PDZ domain GST-fusion protein (domain or fragment, UniProt O14924 18-101, looked up)
chain: PRVRSVEVARGRAGYGFTLSGQAPCVLSCVMRGSPADFVGLQAGDQILAVNEINVKKASHEDVVKLIGKCSGVLHMVIAEGVGR
notes: human RGS12 PDZ domain, aa 18-101 of UniProt O14924, with the bipolar disorder-associated missense variation R59Q; R59Q is a variant found in families with bipolar disorder (Forstner et al.); also called R59Q-variant PDZ domain fusion protein; not shown: GST, N-terminal, kept

Tests used:
[1] = target: T1, R59Q-variant RGS12 PDZ domain GST-fusion protein; assay: SPR single-cycle kinetics (Alto), R59Q-variant PDZ domain; format: binding; settings: for KD of R59Q variant relative to wildtype (fold less than the wildtype) / maximal binding signal (Rmax), R59Q in comparison to wildtype: R59Q vs wildtype, peptide biosensors, N = 2-4; for kon: R59Q, single trace in figure, 111 nM–9 μM analyte, PBS pH 7.3, 1:1 Langmuir with mass transport limitation, read-out: apparent on-rate (ka)
Description: (§1) Wildtype and R59Q-variant versions of the human RGS12 PDZ domain (aa 18–101 of UniProt O14924) were each cloned in frame with an N-terminal glutathione-S-transferase (GST) expression tag, expressed by E. coli fermentation, and purified by GST-affinity column and size-exclusion column chromatographies by GenScript. These recombinant GST-fusion proteins were stored at −80 °C in a storage buffer (150 mM NaCl, 10 mM Tris-HCl pH 7.6, 1 mM EDTA, 5 mM DTT, and 10% glycerol) prior to thawing and supplementation with 0.1% (final) Tween 20 for use in the SPR experiments.
Biotinylated peptides were separately immobilized onto streptavidin-coated gold nanosensor particles (Nicoya) in lane pairs. The reference sensor of the lane held either immobilized mNotch1 or rβ2AR peptide as an established negative control surface, and the test sensor held one of the candidate PDZ domain-interacting peptides. All on-board dilutions and experimental passages of analytes over immobilized peptides were performed with a running buffer consisting of phosphate-buffered saline (137 mM NaCl, 2.7 mM KCl, 4.3 mM disodium phosphate, 1.4 mM monopotassium phosphate; and pH 7.3, from Teknova) supplemented with 0.1% Tween 20 (Nicoya), […] (w/v) bovine serum albumin (BSA; Nicoya), and 3% glycerol (the latter to reduce bulk-shift readings when transitioning from running buffer to protein analyte injections). […] Each sensor was regenerated between each single-stack passage by the injection of a surface regeneration buffer (10 mM NaOH). Non-specific binding to the paired, negative control peptide-bound streptavidin surface was subtracted from each single-stack curve and then binding parameters of the on-rate (ka), off-rate (kd), and dissociation constant (KD) were calculated using the 1:1 Langmuir kinetics model with mass transport limitation (Alto software version 2.3.1; Nicoya). Observed maximal response units (Rmax) and calculated KD values for each single-stack injection were plotted using GraphPad Prism 10.

[2] = target: T2, wildtype RGS12 PDZ domain GST-fusion protein; assay: SPR single-cycle kinetics (Alto), wildtype PDZ domain; format: binding; settings: single trace in figure, 111 nM–9 μM analyte, PBS pH 7.3, 1:1 Langmuir with mass transport limitation, read-out: apparent on-rate (ka)
Description: as §1
Biotinylated peptides were separately immobilized onto streptavidin-coated gold nanosensor particles (Nicoya) in lane pairs. […] All on-board dilutions and experimental passages of analytes over immobilized peptides were performed with a running buffer consisting of phosphate-buffered saline (137 mM NaCl, 2.7 mM KCl, 4.3 mM disodium phosphate, 1.4 mM monopotassium phosphate; and pH 7.3, from Teknova) supplemented with 0.1% Tween 20 (Nicoya), […] (w/v) bovine serum albumin (BSA; Nicoya), and 3% glycerol (the latter to reduce bulk-shift readings when transitioning from running buffer to protein analyte injections). […] Observed maximal response units (Rmax) and calculated KD values for each single-stack injection were plotted using GraphPad Prism 10.

[3] = system: RGS12 PDZ domain protein fusions; settings: yeast two-hybrid, far-western blotting, SPR; ref [19]; cited from earlier work
Text: In our initial report identifying the PDZ domain within RGS12, we characterized its binding selectivity as being directed toward C-terminal (A/S)-T-X-(L/V) peptide motifs. […] Our subsequent report, characterizing RGS12 as a neuronal Ras/MAPK ...

[4] = target: T3, SAPAP3 C-terminal peptide, …; assay: SPR; Alto 8 × 2 digital microfluidics SPR (Nicoya); biotinylated peptides immobilised on streptavidin-coated gold nanosensors; GST-RGS12 PDZ fusion protein as analyte, single-cycle kinetics, 111 nM-9 μM; PBS pH 7.3 with 0.1% Tween 20, BSA, 3% glycerol; mNotch1 or rβ2AR reference sensor subtracted; 1:1 Langmuir model with mass transport limitation; apparent rates, estimated KD; settings: both partners purified
[5] = target: T4, MEK2 C-terminal peptide, …; assay: as above; settings: both partners purified
[6] = target: T5, CXCR2 C-terminal peptide, …; assay: as above; settings: both partners purified

Row | Molecule | KD of R59Q variant relative to wildtype (fold less than the wildtype) [1] | maximal binding signal (Rmax), R59Q in comparison to wildtype [1] | kon [1] [M⁻¹ s⁻¹] | kon [2] [M⁻¹ s⁻¹] | binding to RGS12 PDZ domain fusions (in words) [3] | fold change of KD against the wild type [4] [fold] | fold change of KD against the wild type [5] [fold] | fold change of KD against the wild type [6] [fold]
1 | CC[C@H](C)[C@H](NC(=O)CCCCCNC(=O)CCCC[C@@H]1SC[C@@H]2NC(=O)N[C@@H]21)C(=O)N[C@@H](Cc1ccc(O)cc1)C(=O)N[C@H](C(=O)N1CCC[C@H]1C(=O)N[C@@H](CCC(=O)O)C(=O)N[C@@H](C)C(=O)N[C@@H](CCC(N)=O)C(=O)N[C@H](C(=O)N[C@@H](CCCNC(=N)N)C(=O)N[C@@H](CC(C)C)C(=O)O)[C@@H](C)O)[C@@H](C)CC ({Biotin-Ahx}-IYIPEAQTRL-OH) | at least 2 fold | less maximal binding signal (Rmax) | 15400 | 1490 |  |  |  | 
2 | CC(C)C[C@H](NC(=O)[C@@H](NC(=O)[C@@H](NC(=O)[C@H](CO)NC(=O)[C@@H](NC(=O)[C@H](Cc1c[nH]cn1)NC(=O)CNC(=O)[C@H](CO)NC(=O)[C@H](CO)NC(=O)[C@H](CO)NC(=O)CNC(=O)[C@@H](NC(=O)CCCCCNC(=O)CCCC[C@@H]1SC[C@@H]2NC(=O)N[C@@H]21)C(C)C)[C@@H](C)O)[C@@H](C)O)[C@@H](C)O)C(=O)O ({Biotin-Ahx}-VGSSSGHTSTTL-OH) | at least 2 fold | less maximal binding signal (Rmax) | 1500 | 1210 |  |  |  | 
3 | TSTTL-COOH [CXCR2 C-tail pentamer used in docking and MD] |  |  |  |  | specific binding was observed |  |  | 
4 | B1 |  |  |  |  |  | ≥ 2 | ≥ 2 | ≥ 2
